Measurements taken from patent US12697366B2, “Thermogenic compositions and methods” (Ohio State Innovation Foundation, priority 2016, dated 2026).

Legend:
[1] = system: 3T3-L1 adipocytes; assay: Thermogenic gene expression in 3T3-L1 adipocytes (TaqMan / RT-PCR); format: cell-based, mouse
Protocol: FIGS. 9A to 9D show DRG neurons (500 neurons per well) cultured in DRG culture medium only, or DRG culture medium with NT-3 (1 ng/mL), with NGF (10 ng/mL), with WT secretome (1/1, v/v), or with Aldh1a1^−/− secretome (1/1, v/v) for 24 hours. WT and Aldh1a1^−/− adipocytes differentiated for 5 days. Secretome is the media collected from these cells for 24 h. Neurite outgrowth parameters were assayed using the Thermo Scientific™ ArrayScan™ XTI Live High Content microscope and analyzed with the Neuronal Profiling Algorithm (ThermoFisher). Nine independent experiments were performed using DRG from three mice. Each DRG batch was analyzed in triplicate. Data are shown as mean±SD obtained with one DRG batch. Asterisks indicate P<0.05 between different groups; Mann-Whitney U test. FIG. 9A: Representative images show ~25% of area used for the automatic quantification of neuronal parameters in FIG. 3 per one condition. […] FIG. 9B: Secreted EFNA5 levels in the medium from 3T3-L1 preadipocytes and adipocytes differentiated for 4d were analyzed by ELISA. FIG. 9C: Basal metabolic rate (heat) was measured in PBS- and EFNA5-injected mice from Table 1, Study 4 by an open circuit indirect calorimetry treadmill. […] Expression was measured by RT-PCR and normalized by 18S.
FIGS. 11A to 11I show adipokine Ereg is bilaterally associated with obesity and thermogenesis and activates PPARα. […] FIG. 11B: Ereg expression was measured in non-differentiated and differentiated (day 5) 3T3-L1 adipocytes (Mann-Whitney test) using a customized NanoString mouse panel. FIG. 11C: Ereg expression was measured in differentiated (day 5) 3T3-L1 and Aldh1a1^−/− adipocytes by Taqman and normalized to TATA box protein (TBP). FIG. 11D: Plasma EREG concentrations were measured in mice from Study 1 by western blot. […] FIG. 11E: Plasma EREG concentrations were measured and quantified in iAb of WT and ob/ob mice from Study 2 by western blot (n=5 per each group). […] FIG. 11F: EREG was measured in iAb, subcutaneous and brown fat by western blot. […] Expression level were measured by Taqman and normalized by TBP. […]

[2] = system: human brain endothelial cells (hBEC); assay: FD-glucose uptake in human brain endothelial cells (hBEC); format: cell-based; details: hINS 1.7 μM, AAC2 0.1 μM, 50 min; FIG. 42B
Protocol: FD-glucose uptake in human brain endothelial cells (hBEC, n=8 per treatment) treated with vehicle (Veh; PBS, open bar) or hINS (1.7 μM), human leptin (hLep; 62.5 nM, hatched bar), or AAC2 (0.1 μM black bar) in the presence and absence of GLUT1 inhibitor (BAY-876; 10 nM in DMSO). Cells were pre-treated with or without BAY-876 for 40 min and then FD glucose and treatment reagents were added for additional 50 min of incubation. Data (%) was normalized to FD-glucose uptake in control (Veh) hBEC without inhibitor (100%).

[3] = system: STZ mice; assay: AAC2, INS and AAC2-INS treatment of STZ mice (streptozotocin-induced type 1 diabetes); details: mouse, in vivo
Protocol: The untreated STZ mice died 32 days after STZ induction of experimental type 1 diabetes. […] Liver toxicity was measured by plasma levels of liver enzyme aspartate aminotransferase (AST).
Human INS was used for treatment to distinguish from endogenous mouse INS. […] Insulin tolerance test (ITT) was used to assess insulin sensitivity. […] Glucose tolerance test (GTT) was used to assess glucose tolerance.
[…] SLC6A6 is a principal transporter for neurotransmitter and osmolyte taurine, in all treated STZ mice. […] MVK a key kinase in cholesterol synthesis pathway. […] GPX6 a key antioxidant enzyme induced in the liver in response to oxidative stress.
Cognitive performance was measured using Barnes maze behavioral test to measure spatial learning (escape latency (60B) and number of errors (60C)) and memory (60D).

| Substance | expression of thermogenic gene Pgc1a ([1]; 10 ng/ml recombinant EREG, FIG. 22) | Ucp1 and Ucp2 expression ([1]; recombinant EREG 50 ng/mL, day 5) | glucose uptake in human blood-brain barrier endothelial cells [2] | expression of Glutathone peroxidase (GPX6) [3] | expression of insulin 1 gene (Ins1) in the brain [3] |
| --- | --- | --- | --- | --- | --- |
| EREG: Epiregulin, member of the epidermal growth factor family; recombinant mouse or human protein | increases | induced | – | – | – |
| insulin: insulin (bovine or human) | – | – | not | significantly increased | detrimental suppression |
